Results taken from PMC8741970, “Ablation of VLA4 in multiple myeloma cells redirects tumor spread and prolongs survival” (Scientific Reports, 2022).
“Also recorded” adds a separate entry of the source.

Columns and labels:
[1] = target: T1, VLA4 on WT 5TGM1-GFP cells (Mus musculus, UniProt P09055+Q00651); assay: Flow cytometry binding to WT 5TGM1-GFP cells; parameters: species or system murine; conditions: for binding to WT cells (flow cytometry gate): 1.5 × 10^5 WT 5TGM1-GFP cells, no BIO5192; for binding to WT cells after pre-incubation with BIO5192: WT 5TGM1-GFP cells, pre-incubation with an established therapeutic dose of BIO5192
T1 construct: endogenous in cells; host or cells: WT 5TGM1-GFP murine myeloma cells
T1 sequence (Q00651 34-1039 limits assumed): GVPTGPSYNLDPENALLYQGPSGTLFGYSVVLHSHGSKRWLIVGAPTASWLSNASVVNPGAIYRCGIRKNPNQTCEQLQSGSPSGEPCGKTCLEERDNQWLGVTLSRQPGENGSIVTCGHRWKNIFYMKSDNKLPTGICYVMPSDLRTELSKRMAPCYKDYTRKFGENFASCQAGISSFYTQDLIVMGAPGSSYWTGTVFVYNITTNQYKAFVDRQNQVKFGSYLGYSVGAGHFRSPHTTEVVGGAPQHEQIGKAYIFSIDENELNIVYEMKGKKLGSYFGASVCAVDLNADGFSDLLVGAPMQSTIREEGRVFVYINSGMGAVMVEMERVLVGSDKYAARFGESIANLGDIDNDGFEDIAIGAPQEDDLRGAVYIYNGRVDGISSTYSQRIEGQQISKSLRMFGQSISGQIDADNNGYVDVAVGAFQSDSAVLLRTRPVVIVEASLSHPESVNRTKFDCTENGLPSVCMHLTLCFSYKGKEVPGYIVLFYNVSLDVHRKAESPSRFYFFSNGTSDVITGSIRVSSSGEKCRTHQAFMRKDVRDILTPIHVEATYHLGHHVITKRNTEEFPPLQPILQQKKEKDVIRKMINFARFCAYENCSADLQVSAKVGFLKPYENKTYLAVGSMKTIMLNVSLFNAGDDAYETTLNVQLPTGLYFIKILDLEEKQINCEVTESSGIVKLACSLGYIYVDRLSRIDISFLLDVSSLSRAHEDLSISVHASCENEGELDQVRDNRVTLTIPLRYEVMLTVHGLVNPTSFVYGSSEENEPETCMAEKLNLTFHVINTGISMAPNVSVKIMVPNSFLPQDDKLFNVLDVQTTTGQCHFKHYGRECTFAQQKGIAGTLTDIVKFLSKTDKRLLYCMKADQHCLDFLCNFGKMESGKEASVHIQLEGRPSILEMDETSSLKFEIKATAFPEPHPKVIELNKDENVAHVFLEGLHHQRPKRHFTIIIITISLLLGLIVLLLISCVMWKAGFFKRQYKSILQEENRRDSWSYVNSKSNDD
T1 sequence (P09055 21-798): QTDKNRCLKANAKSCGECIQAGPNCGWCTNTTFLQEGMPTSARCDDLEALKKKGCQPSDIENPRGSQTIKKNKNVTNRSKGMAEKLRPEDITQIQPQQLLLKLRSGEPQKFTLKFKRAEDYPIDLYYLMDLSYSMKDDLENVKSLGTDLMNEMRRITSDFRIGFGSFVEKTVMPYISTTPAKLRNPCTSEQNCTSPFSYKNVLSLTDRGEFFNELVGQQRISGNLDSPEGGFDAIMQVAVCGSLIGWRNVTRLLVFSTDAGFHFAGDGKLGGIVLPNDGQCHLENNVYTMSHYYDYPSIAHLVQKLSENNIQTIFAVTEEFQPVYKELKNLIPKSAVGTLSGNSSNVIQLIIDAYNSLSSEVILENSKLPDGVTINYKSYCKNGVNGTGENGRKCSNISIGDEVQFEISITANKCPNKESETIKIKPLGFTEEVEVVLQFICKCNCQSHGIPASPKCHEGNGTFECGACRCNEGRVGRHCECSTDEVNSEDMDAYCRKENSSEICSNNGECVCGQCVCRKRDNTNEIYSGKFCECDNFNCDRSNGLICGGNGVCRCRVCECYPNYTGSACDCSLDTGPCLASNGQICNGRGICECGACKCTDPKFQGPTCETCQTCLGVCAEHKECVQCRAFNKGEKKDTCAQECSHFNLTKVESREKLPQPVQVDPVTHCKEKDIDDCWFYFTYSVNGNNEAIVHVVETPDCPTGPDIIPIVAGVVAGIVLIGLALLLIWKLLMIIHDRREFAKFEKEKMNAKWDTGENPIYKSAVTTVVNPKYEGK
Procedure: (§1) The single cells were suspended in phosphate-buffered saline (PBS) with 0.1% bovine serum albumin as buffer. The human and mouse FC receptors were blocked by human BD Fc block and mouse BD Fc block, respectively. The cell suspension was incubated with fluorochrome-conjugated monoclonal antibodies in dark, at room temperature, for 30 min. Cells were washed twice with buffer afterward, and then proceeded analysis on a Beckman Coulter Gallios flow cytometer. The dead cells were excluded by using 7-amino-actinonycin D (7-AAD). The data were analyzed on FlowJo software. The appropriate isotype antibodies were used as controls.

[2] = test system: VLA4 KO 5TGM1-GFP cells; assay: Flow cytometry binding to Itga4 KO 5TGM1-GFP cells; parameters: species or system murine; conditions: for binding to KO cells (flow cytometry gate): 1.5 × 10^5 Itga4 KO 5TGM1-GFP cells, no BIO5192; for binding to KO cells after pre-incubation with BIO5192: Itga4 KO 5TGM1-GFP cells, pre-incubation with an established therapeutic dose of BIO5192
Procedure: as §1

[3] = target: activated VLA4 on 5TGM1 (Mus musculus, UniProt P09055+Q00651); conditions: 5TGM1, flow cytometry
Sequence of activated VLA4 on 5TGM1 (Q00651 34-1039 limits assumed): as the sequence (Q00651 34-1039 limits assumed) above
Sequence of activated VLA4 on 5TGM1 (P09055 21-798): as the sequence (P09055 21-798) above
Procedure: as §1

[4] = target: activated VLA4 on H929 (Homo sapiens, UniProt P05556+P13612); conditions: H929, flow cytometry
Sequence of activated VLA4 on H929 (P13612 34-1032): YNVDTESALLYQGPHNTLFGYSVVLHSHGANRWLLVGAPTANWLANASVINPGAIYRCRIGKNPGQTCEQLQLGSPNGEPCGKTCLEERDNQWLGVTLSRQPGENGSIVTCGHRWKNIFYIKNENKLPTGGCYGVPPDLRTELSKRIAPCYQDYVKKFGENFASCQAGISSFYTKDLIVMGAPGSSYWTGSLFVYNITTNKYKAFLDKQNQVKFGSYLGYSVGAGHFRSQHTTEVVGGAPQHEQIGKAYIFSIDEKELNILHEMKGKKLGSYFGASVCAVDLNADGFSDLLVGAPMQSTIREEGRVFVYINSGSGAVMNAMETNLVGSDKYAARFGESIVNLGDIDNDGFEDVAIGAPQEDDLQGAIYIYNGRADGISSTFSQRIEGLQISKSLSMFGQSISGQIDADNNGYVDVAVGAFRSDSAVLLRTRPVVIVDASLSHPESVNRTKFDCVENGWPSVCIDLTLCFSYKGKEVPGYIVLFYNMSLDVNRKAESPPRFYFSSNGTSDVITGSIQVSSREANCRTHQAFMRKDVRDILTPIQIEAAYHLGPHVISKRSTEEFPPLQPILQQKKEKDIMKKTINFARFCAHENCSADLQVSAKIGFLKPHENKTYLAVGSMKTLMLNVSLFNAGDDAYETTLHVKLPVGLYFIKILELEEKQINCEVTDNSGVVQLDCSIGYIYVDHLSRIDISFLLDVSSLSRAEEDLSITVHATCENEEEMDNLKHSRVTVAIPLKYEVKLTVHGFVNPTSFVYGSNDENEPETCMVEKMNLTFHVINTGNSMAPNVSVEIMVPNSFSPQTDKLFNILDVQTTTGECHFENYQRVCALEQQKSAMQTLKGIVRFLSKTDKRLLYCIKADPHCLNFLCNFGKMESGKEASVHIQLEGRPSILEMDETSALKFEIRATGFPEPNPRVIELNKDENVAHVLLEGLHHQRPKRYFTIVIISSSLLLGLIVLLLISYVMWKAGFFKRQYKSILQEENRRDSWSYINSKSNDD
Sequence of activated VLA4 on H929 (P05556 21-798): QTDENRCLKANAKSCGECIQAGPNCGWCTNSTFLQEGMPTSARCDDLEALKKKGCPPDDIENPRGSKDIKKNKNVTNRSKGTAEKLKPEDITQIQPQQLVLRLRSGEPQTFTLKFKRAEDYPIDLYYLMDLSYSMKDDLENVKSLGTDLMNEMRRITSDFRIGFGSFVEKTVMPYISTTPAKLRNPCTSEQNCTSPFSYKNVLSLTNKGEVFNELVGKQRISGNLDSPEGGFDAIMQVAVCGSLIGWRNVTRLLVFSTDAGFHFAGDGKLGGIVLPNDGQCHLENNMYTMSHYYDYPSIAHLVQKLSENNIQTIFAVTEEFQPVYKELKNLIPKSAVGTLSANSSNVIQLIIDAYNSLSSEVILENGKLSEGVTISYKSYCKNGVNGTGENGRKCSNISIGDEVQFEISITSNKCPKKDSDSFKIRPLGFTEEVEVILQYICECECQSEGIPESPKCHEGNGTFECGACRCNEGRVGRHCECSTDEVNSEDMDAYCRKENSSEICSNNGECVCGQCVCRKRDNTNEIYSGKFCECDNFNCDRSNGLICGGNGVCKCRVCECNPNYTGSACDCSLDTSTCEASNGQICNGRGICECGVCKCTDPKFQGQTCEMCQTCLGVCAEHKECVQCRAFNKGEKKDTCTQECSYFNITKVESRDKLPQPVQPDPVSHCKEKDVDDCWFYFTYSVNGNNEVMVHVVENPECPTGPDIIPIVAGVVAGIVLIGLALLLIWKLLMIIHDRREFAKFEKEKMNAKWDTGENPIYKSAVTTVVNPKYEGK
Procedure: as §1

[5] = target: activated VLA4 on MM1.S (Homo sapiens, UniProt P05556+P13612); conditions: flow cytometry
Sequence of activated VLA4 on MM1.S (P13612 34-1032): as the sequence (P13612 34-1032) above
Sequence of activated VLA4 on MM1.S (P05556 21-798): as the sequence (P05556 21-798) above
Procedure: as §1

[6] = target: activated VLA4 on OPM2 (Homo sapiens, UniProt P05556+P13612); conditions: OPM2, flow cytometry
Sequence of activated VLA4 on OPM2 (P13612 34-1032): as the sequence (P13612 34-1032) above
Sequence of activated VLA4 on OPM2 (P05556 21-798): as the sequence (P05556 21-798) above
Procedure: as §1

[7] = target: activated VLA4 on RPMI-8226 (Homo sapiens, UniProt P05556+P13612); conditions: RPMI-8226, flow cytometry
Sequence of activated VLA4 on RPMI-8226 (P13612 34-1032): as the sequence (P13612 34-1032) above
Sequence of activated VLA4 on RPMI-8226 (P05556 21-798): as the sequence (P05556 21-798) above
Procedure: as §1

[8] = target: activated VLA4 on U266 (Homo sapiens, UniProt P05556+P13612); conditions: U266, flow cytometry
Sequence of activated VLA4 on U266 (P13612 34-1032): as the sequence (P13612 34-1032) above
Sequence of activated VLA4 on U266 (P05556 21-798): as the sequence (P05556 21-798) above
Procedure: as §1

[9] = target: activated VLA4 on CD138+CD38+ MM PCs (Homo sapiens, UniProt P05556+P13612); conditions: nineteen de-identified BM samples from myeloma patients (13/19); HBSS with Ca2+, Mg2+, 0.1% BSA
Sequence of activated VLA4 on CD138+CD38+ MM PCs (P13612 34-1032): as the sequence (P13612 34-1032) above
Sequence of activated VLA4 on CD138+CD38+ MM PCs (P05556 21-798): as the sequence (P05556 21-798) above
Procedure: as §1, with “The single cells were suspended in phosphate-buffered saline (PBS) with 0.1% bovine serum albumin as buffer.” left out

[10] = test system: monocytes; assay: Binding studies with MM patient BM samples, monocytes; parameters: species or system human
Procedure: (§2) Purified cells were > 97% for CD38 + CD138 + plasma cells.
(§3) The data were analyzed on FlowJo software. The appropriate isotype antibodies were used as controls.

[11] = test system: T-lymphocytes; assay: Binding studies with MM patient BM samples, T-lymphocytes; parameters: species or system human
Procedure: as §2, §3

[12] = test system: B-lymphocytes; assay: Binding studies with MM patient BM samples, B-lymphocytes; parameters: species or system human
Procedure: as §2, §3

[13] = test system: 5TGM1-GFP tumors in C57Bl/KaLwRij mice; assay: In vivo and ex vivo NIR fluorescence imaging in the 5TGM1/KaLwRij i.v. MM model; parameters: species or system mouse
Procedure: All animal studies were conducted according to protocols approved by the Washington University Animal Studies Committee. Mice were anesthetized for all treatments and imaging with 2% v/v isoflurane/100% O2. Female 1–3 month-old C57Bl/6 KaLwRij mice were injected intravenously (i.v.) with 10^6 5TGM1-GFP cells in 100 µL 1 × PBS via the lateral tail vein. Imaging studies were performed 3–4 weeks after tumor implantation. Prior to imaging, hair was removed by gentle clipping and depilatory cream to improve light transmission. Supplemental Fig. S1. […] The images were background subtracted and gated by fluorescence lifetime to minimize autofluorescence and diet-related non-specific fluorescence[65],[66].
Supplementary Fig. 4. Mice were anesthetized for all imaging with 2% v/v isoflurane/100% O2. Female (n = 2)1–3 month old C57Bl/6 KaLwRij mice were injected with 1 × 10^6 5TGM1-GFP WT in 100 µL PBS via the lateral tail-vein. In vivo 3D fluorescence imaging in Supplemental Fig. 3A was performed on IVIS Spectrum CT (PerkinElmer, Waltham, MA) with auto-exposure settings in the GFP wavelength (Ex./Em. 480 nm/520 nm) filter pair.
Supplementary Fig. 5. Mice were anesthetized for all imaging with 2% v/v isoflurane/100% O2. Female 1–3 month old C57Bl/6 KaLwRij mice were injected with 1 × 10^6 5TGM1-GFP WT (n = 11) or KO (n = 12) cells in 100 µL PBS via the lateral tail-vein.
2D analysis and 3D in vivo and ex vivo reconstructions were performed using the Living Image 4.7.1 analysis software. Background fluorescence was subtracted automatically via the “Adaptive Background Subtraction” module within the Living Image 4.7.1 program. Analysis of 2D ex vivo fluorescent images was performed by measuring Total Radiant Efficiency (TRE) (photons/sec/cm^2/sr)/(μW/cm^2) from ROIs drawn around bone and muscle tissue in the GFP and Cy5 images. Tissue to muscle ratio was calculated by dividing TREs of tissue by TREs of muscle tissue of each respective mouse.
(§4) [picture] Supplementary Figure 4. […] In vivo 3D fluorescence imaging was performed on IVIS Spectrum CT (PerkinElmer, Waltham, MA) with auto-exposure settings in the GFP wavelength (Ex./Em. 480nm/520nm) filter pair. […] GFP^+ cells were co-stained with PE-conjugated anti-mouse CD49d and eFluor450-conjugated anti-mouse CD29 antibodies (middle; Thermo Fisher Scientific) to identify VLA4^+ cells.

[14] = test system: VLA4 expressing cells in BM and spleen of 5TGM1-GFP tumor mice; assay: FACS of ex vivo tissue samples after LLP2A-Cy5 injection; format: in vivo, mouse; conditions: after i.v. LLP2A-Cy5
Procedure: as §3, §4

[15] = target: activated VLA4 on the surface of the 5TGM1-GFP murine myeloma cells (Mus musculus, UniProt P09055+Q00651); assay: Confocal microscopy of cell surface binding and internalization of Cy5-labelled probes; conditions: WT 5TGM1-GFP cells
Sequence of activated VLA4 on the surface of the 5TGM1-GFP murine myeloma cells (Q00651 34-1039 limits assumed): as the sequence (Q00651 34-1039 limits assumed) above
Sequence of activated VLA4 on the surface of the 5TGM1-GFP murine myeloma cells (P09055 21-798): as the sequence (P09055 21-798) above
Procedure: Blue, green and red colors represent nuclear stain, GFP, and Cy5 signal, respectively in all images (60x; scale bar: 20 µm). […] BIO5192 (100 nM) was used to evaluate non-specific binding.
WT 5TGM1-GFP cells were plated on 35 mm glass bottom MatTek dishes pre-coated with poly-D-lysine (glass no. 1.5; MatTek Corporation, MA) at 10^5 cells/cm^2 and allowed to attach for 1 h at 37 °C. Cells were incubated with the Cy5-labelled probes (1 µM) at 4 °C for 15 min, and at 37 °C for 2.5 h to assess cell surface binding specificity and cellular internalization, respectively. Hoechst 34,580 (10 µg/L, Invitrogen, CA) was added for the last 15 min of incubation to counterstain cell nuclei. Fluorescence confocal microscopy was performed on a Nikon A1Rsi confocal microscope (Nikon Corporation, Tokyo, Japan) with 60X and 100X oil immersion objectives using excitation-emission settings at 405 nm-450/40 nm (Hoechst 34,580), 488 nm-530/20 nm (GFP), and 640–660/20 nm (Cy5).

[16] = ex vivo biodistribution 18 h after i.v. 100 µL of 25 µM LLP2A-Cy5, 5TGM1-GFP WT tumor mice, 3 weeks post inoculation, mean ± SD

Cc1ccccc1NC(=O)Nc1ccc(CC(=O)N[C@@H](CCCCNC(=O)/C=C/c2cccnc2)C(=O)N[C@@H](CCCC(=O)O)C(=O)NC2(C(N)=O)CCCCC2)cc1 [LLP2A-Cy5]
binding to WT cells (flow cytometry gate) [1]: 100%
binding to WT cells after pre-incubation with BIO5192 [1]: 0.95%
binding to KO cells (flow cytometry gate) [2]: 0.6%
binding to KO cells after pre-incubation with BIO5192 [2]: 0.52%
% LLP2A-Cy5+ [3]: 100%
LLP2A-Cy5+ median fluorescence intensity (MFI) [3]: 23.4
% LLP2A-Cy5+ [4]: 63.3%
LLP2A-Cy5+ median fluorescence intensity (MFI) [4]: 3.4
% LLP2A-Cy5+ [5]: 22.4%
LLP2A-Cy5+ median fluorescence intensity (MFI) [5]: 2.1
% LLP2A-Cy5+ [6]: 80.1%
LLP2A-Cy5+ median fluorescence intensity (MFI) [6]: 4.6
% LLP2A-Cy5+ [7]: 59.5%
LLP2A-Cy5+ median fluorescence intensity (MFI) [7]: 3.2
% LLP2A-Cy5+ [8]: 100%
LLP2A-Cy5+ median fluorescence intensity (MFI) [8]: 16.1
share of patient samples in which LLP2A-Cy5 stained over 20% of CD138+CD38+ MM PCs [9]: 68%
percentage of LLP2A-Cy5+ cells [10]: 58.2%
relative median fluorescence (RMFI) [10]: 3.0
percentage of LLP2A-Cy5+ cells [11]: 36.3%
relative median fluorescence (RMFI) [11]: 2.2
percentage of LLP2A-Cy5+ cells [12]: 23.3%
relative median fluorescence (RMFI) [12]: 1.7
uptake in KO tumor foci compared with WT ([13]; KaLwRij mice with Itga4 KO versus WT 5TGM1-GFP tumors, ex vivo fluorescence imaging 18 h after LLP2A-Cy5): significantly reduced uptake
femur-muscle fluorescence ratio [13, 16]: 7.0 ± 2.5
spleen-muscle fluorescence ratio [13, 16]: 2.6 ± 0.7
time post-injection at which tumor contrast peaked ([13]; noninvasive fluorescence imaging before, 4 and 18 h after i.v. 100 µL of 25 µM LLP2A-Cy5): ~ 18 h
% LLP2A-Cy5+ cells in the BM ([14]; ex vivo BM, GFP+ tumor cells (97.5% VLA4+)): 84.7%
% LLP2A-Cy5+ cells in the hematopoietic BM niche ([14]; hematopoietic BM niche (63.6% VLA4+)): 53.2%
cellular localization after extended incubation ([15]; 1 µM, 37 °C, 2.5 h, confocal 3D z-stack): dominant cell membrane binding; also recorded: strong cell surface binding with minimal internalization
fold reduction of cell surface binding on blocking with excess unlabeled peptide ([15]; LLP2A-Cy5 1 µM co-incubated with 100-fold excess LLP2A-PEG4 (100 µM), 15 min, 4 °C, confocal microscopy): 3.07 ± 0.3 fold

B1: sVCAM-1: soluble vascular cell adhesion molecule-1, natural ligand of VLA4 (protein, UniProt P19320 25-698, looked up)
extracellular domain: FKIETTPESRYLAQIGDSVSLTCSTTGCESPFFSWRTQIDSPLNGKVTNEGTTSTLTMNPVSFGNEHSYLCTATCESRKLEKGIQVEIYSFPKDPEIHLSGPLEAGKPITVKCSVADVYPFDRLEIDLLKGDHLMKSQEFLEDADRKSLETKSLEVTFTPVIEDIGKVLVCRAKLHIDEMDSVPTVRQAVKELQVYISPKNTVISVNPSTKLQEGGSVTMTCSSEGLPAPEIFWSKKLDNGNLQHLSGNATLTLIAMRMEDSGIYVCEGVNLIGKNRKEVELIVQEKPFTVEISPGPRIAAQIGDSVMLTCSVMGCESPSFSWRTQIDSPLSGKVRSEGTNSTLTLSPVSFENEHSYLCTVTCGHKKLEKGIQVELYSFPRDPEIEMSGGLVNGSSVTVSCKVPSVYPLDRLEIELLKGETILENIEFLEDTDMKSLENKSLEMTFIPTIEDTGKALVCQAKLHIDDMEFEPKQRQSTQTLYVNVAPRDTTVLVSPSSILEEGSSVNMTCLSQGFPAPKILWSRQLPNGELQPLSENATLTLISTKMEDSGVYLCEGINQAGRSRKEVELIIQVTPKDIKLTAFPSESVKEGDTVIISCTCGNVPETWIILKKKAETGDTVLKSIDGAYTIRKAQLKDAGVYECESKNKVGSQLRSLTLDVQGRENNKDYFSPE
modifications: extracellular domain
notes: soluble vascular cell adhesion molecule-1, natural ligand of VLA4
binding to WT cells (flow cytometry gate) [1]: 97.7%
binding to WT cells after pre-incubation with BIO5192 [1]: 3.33%
binding to KO cells (flow cytometry gate) [2]: 1.65 ± 0.07%
binding to KO cells after pre-incubation with BIO5192 [2]: 2.51%
